Test results as given in patent US20250332249A1, “CYTOM[…] CELL EPITOPES AND USES THEREOF” (LA JOLLA INSTITUTE FOR IMMUNOLOGY, priority 2021, published 2025).
Where no end group is shown, it is not given here.

System: PBMCs from HCMV seropositive subjects
Assay: ex vivo IFN-γ Fluorospot assay
Type: cell-based, human
Conditions: 19 HCMV seropositive subjects, individual peptide 10 ug/ml, 20 hr; for No. of subjects responding: IFN-γ; for Magnitude of response: IFN-γ spots (FIG. 1: SFC/10^6 PBMC; no unit in table)
Protocol: To define the targets of HCMV-specific T cell epitopes recognized in healthy adults, the inventors screened PBMCs of 19 subjects, 10 males and 9 females, recruited from San Diego blood bank (SDBB). The HCMV seropositivity of all the subjects was confirmed by IgG ELISA (FIG. 6A). A total of 2593 HCMV peptides covering a total of 563 ORFs (1) were tested. However, as many of these predicted ORFs overlapped 100% with others, as they were internal to longer ORFs, these 563 contained 359 completely unique ORFs composed of ˜150“canonical” ORFs, and an additional ˜200 identified by ribosomal RNA profiling (1). These peptides corresponded to predicted dominant epitopes, based on a bioinformatic method that predicts promiscuous binding to HLA class II molecules (40). Each of the ORFs above was covered by multiple predicted epitopes (with a minimum of at least 2), with the exception of very small ORFs (less than 15-20 amino acid residues), in which case at least one peptide was synthetized. The 2593 peptides were arranged in 89 pools of 28-30 15-mer peptides. PBMC reactivity of each of the 89 pools was assayed directly ex vivo using an IFN-γ Fluorospot assay.
For the initial CMV ORF screen, the responses of 19 CMV-seropositive subjects were evaluated. PBMCs were stimulated with 89 pools covering 563 ORFs of HCMV. Each pool comprised of 28-30 15-mer peptides overlapping by 10 residues. PBMCs that were found reactive to a pool were further tested against individual peptides contained in the pool using IFN-γ Fluorospot assay.
PBMC were thawed, washed and counted for viability using the trypan blue exclusion method. 200,000 cells were plated in triplicates and stimulated with pools (2 ug/ml) or peptides (10 ug/ml), PHA (10 ug/ml) or medium containing equivalent amount of DMSO in 96-well plates (Immubilion-P, Millipore) previously coated with anti IFN-γ antibody (1-DIK, Mabtech, Stockholm, Sweden). After 20 hr incubation at 37° C., cells were discarded and wells were washed six times with PBS/0.05% Tween 20 using an automated plate washer and further incubated with IFN-γ antibody (7-B6-1-FS-BAM) for 2 hrs at room temperature. After incubation, wells were washed and incubated with fluorophore conjugated anti-BAM-490 antibody for 1 hr at room temperature. Finally, the plates were washed and incubated with fluorescence enhancer for 15 min, blotted dry and fluorescent spots were counted by computer assisted image analysis (IRIS Fluorospot reader, Mabtech, Sweden).
Each pool or peptide was considered positive compared to the background that had equivalent amount of DMSO based on the following criteria: (i) 20 or more spot forming cells (SFC) per 10^6 PBMC after background subtraction, (ii) the stimulation index greater than 2, and (iii) p<0.05 by student's t test or Poisson distribution test

| Substance | No. of subjects responding | Magnitude of response |
| --- | --- | --- |
| 1 (NGIRWQYQELQYLVE) [compound 1] | 2 | 222 |
| 2 (RYNALTVRSRDSLLL) [compound 2] | 2 | 204 |
| 3 (RVRTWFVQRTTLWRR) [compound 3] | 1 | 60 |
| 4 (GLWVSSYLVRRPMTI; ends and bridges not checked) [compound 4] | 2 | 890 |
| 5 (QGATYQLSIVRQAMQ; ends and bridges not checked) [compound 5] | 1 | 650 |
| 6 (GAGLRQLRQQLTVRW) [compound 6] | 1 | 20 |
| 7 (MRTVPVTKLYTSRMV) [compound 7] | 1 | 5677 |
| 8 (AITLFFFLLALRIPQ) [compound 8] | 1 | 207 |
| 9 (ALFTHFVGRPRHCRL) [compound 9] | 1 | 57 |
| 10 (MLGIRAMLVMLDYYW) [compound 10] | 1 | 350 |
| 11 (PSVRMDFRARRPLRR) [compound 11] | 3 | 1740 |
| 12 (ARRLWILSLLAVTLT; ends and bridges not checked) [compound 12] | 1 | 100 |
| 13 (LLAVTLTVALAAPSQ; ends and bridges not checked) [compound 13] | 2 | 6420 |
| 14 (KDRCLVIRRRWRLVR) [compound 14] | 1 | 60 |
| 15 (FVAESITEFLNIGLR) [compound 15] | 1 | 530 |
| 16 (HENGIYYGTRSMRKL) [compound 16] | 1 | 827 |
| 17 (FCRRFFFPDRPDFFL) [compound 17] | 1 | 107 |
| 18 (AEDSVFTSTRARSAT) [compound 18] | 1 | 490 |
| 19 (KFVLQDFDVQHLRRL) [compound 19] | 1 | 40 |
| 20 (IINYYYVAQKKARHM) [compound 20] | 1 | 163 |
| 21 (ALALHFLTSRKGVTD) [compound 21] | 1 | 40 |

| Substance | No. of subjects responding | Magnitude of response |
| --- | --- | --- |
| 23 (DFLRVVRQQDAFICT) [compound 23] | 2 | 174 |
| 24 (ICVARLQAQPSSRHI) [compound 24] | 1 | 37 |
| 25 (GVSSVTLLKIFSQVP) [compound 25] | 2 | 220 |
| 26 (VLATLAAVRTRRRSV) [compound 26] | 2 | 340 |
| 27 (EAYVRINAGQVLPVV) [compound 27] | 1 | 1853 |
| 28 (LHCMRYLTSSLVKRY) [compound 28] | 1 | 150 |
| 29 (KRYFRPLLRAWSLGL) [compound 29] | 4 | 1388 |
| 30 (HLLRNIKTAFGMRVL) [compound 30] | 2 | 1093 |
| 31 (ARNLMEFARVGLRAV) [compound 31] | 1 | 1450 |
| 32 (TGLVLLLLLLVVRLL) [compound 32] | 1 | 1440 |
| 33 (MLFRPTISNSIPRCR) [compound 33] | 1 | 47 |
| 34 (LRIIRLLRASIRHEY; ends and bridges not checked) [compound 34] | 1 | 810 |
| 35 (RAHIQKFERLHVRRF; ends and bridges not checked) [compound 35] | 1 | 2523 |
| 36 (SLQFIGLQRRDVVAL; ends and bridges not checked) [compound 36] | 1 | 83 |
| 37 (RDVVALVNFLRHLTQ; ends and bridges not checked) [compound 37] | 1 | 1710 |
| 38 (RRTVLFNELMLWLGY; ends and bridges not checked) [compound 38] | 1 | 180 |
| 39 (VNAVNKLVYTGRLIM; ends and bridges not checked) [compound 39] | 1 | 340 |
| 40 (KELRMCLSFDSNYCR; ends and bridges not checked; cysteine pairing not given here) [compound 40] | 1 | 127 |
| 41 (GMKTVAFDLSSPQKS; ends and bridges not checked) [compound 41] | 1 | 193 |
| 46 (SYRSTYIILLLTWFA; ends and bridges not checked) [compound 46] | 3 | 3990 |
| 47 (LTLRRTIGTLSRLVP; ends and bridges not checked) [compound 47] | 1 | 163 |

| Substance | No. of subjects responding | Magnitude of response |
| --- | --- | --- |
| 48 (RRRMVSVTLFSPYSV; ends and bridges not checked) [compound 48] | 1 | 53 |
| 49 (GRLMEVRQRNGRLRR; ends and bridges not checked) [compound 49] | 1 | 30 |
| 50 (WPERCFIQLRSRSAL; ends and bridges not checked) [compound 50] | 3 | 313 |
| 51 (GPGFMRYQLIVLIGQ; ends and bridges not checked) [compound 51] | 1 | 3167 |
| 52 (IQTMELMIRTVPRIT) [compound 52] | 2 | 384 |
| 53 (EFLVRQYVLVDTFGV) [compound 53] | 2 | 104 |
| 54 (RREAIVRLEKTPTCQ) [compound 54] | 2 | 407 |
| 55 (RRRFKVCDVGRRHII) [compound 55] | 1 | 63 |
| 56 (RHRFLWQRRRRARLL) [compound 56] | 1 | 1000 |
| 58 (FLKKMLLCALKGRAS) [compound 58] | 1 | 930 |
| 59 (MPVQRLTVNVARCVF) [compound 59] | 1 | 20 |
| 60 (KFIFELYRLPRLSIA) [compound 60] | 1 | 173 |
| 61 (ASKIKMLETRVTLAL) [compound 61] | 1 | 140 |
| 63 (AFKLDLLRMIAVSRT) [compound 63] | 2 | 477 |
| 64 (MLFFQRYAPAFVTGY) [compound 64] | 1 | 57 |
| 65 (DLKYILTRLEYLYKV) [compound 65] | 1 | 30 |
| 66 (DPSYVREHGVPIHAD) [compound 66] | 1 | 123 |
| 67 (TDLIRFERNIVCTSM) [compound 67] | 3 | 273 |
| 68 (EGIMVVYKRNIVAHT) [compound 68] | 1 | 637 |
| 69 (HTFKVRVYQKVLTFR) [compound 69] | 1 | 423 |
